Test results taken from patent publication US20100297109A1, “METHODS FOR INHIBITING FASCIN” (Cornell University, priority 2007, published 2010).

Columns and labels:
[1] = tested on: mouse breast tumor 4T1 cells; assay: Wound-healing assay, serum-induced migration of 4T1 cells; assay type: cell-based; conditions: 2 μM
Method: Cells. Mouse 4T1 mammary tumor cells and human MDA-MB-231 breast tumor cells were obtained from ATCC and have been described previously (Shan et al. 2005, Yang et al. 2005). 4T1 cells were cultured in RPMI 1640 medium supplemented with 10% FBS. MDA-MB-231 cells were cultured in DMEM supplemented with 10% FBS. Wound-healing assay. The wound-healing assay involves observing whether confluent cells can migrate across a scrape or wound in the cell layer. Cell migration assays were performed as described previously (Yang et al. 2005, Shan et al 2006). Tumor cells were plated in a 24-well plate coated with gelatin in standard media. After the cells grew to confluence, wounds were made in the confluent layer of cell using a sterile instrument such as a sterile pipette tip. The cells were washed with Phosphate Buffered Saline (PBS) or other sterile solutions and then the migration was induced by adding medium supplemented with 10% FBS. When the wound for the positive control closed, cells were fixed with 3.7% formaldehyde and stained with crystal violet staining solution. […] Photographs several random regions of the filter facing the second chamber are taken and the number of cells counted to calculate the average number of cells that had transmigrated.

[2] = tested on: human prostate tumor PC-3 cells; assay: Cell migration assay, PC-3 cells; assay type: cell-based
[3] = tested on: human fascin His474 to Lys or Ala mutants; assay: Chamber migration of fascin siRNA-treated 4T1 cells rescued with His474 mutants of human fascin; assay type: cell-based; conditions: His474 to Lys or Ala human fascin in fascin siRNA-treated 4T1 cells
Method: (§1) Boyden Chamber Cell Migration Assay. Cells (5×10^4) suspended in starvation medium were added to the upper chamber of an insert (6.5 mm diameter, 8-micrometer pore size, Becton Dickenson), and the insert was placed in a 24-well dish containing starvation medium with or without 10% FBS (Yang et al. 2005, Shan et al. 2006). When used, inhibitors were added to both chambers. Migration assays were carried out for 4-6 hours and cells were fixed with 3.7% formaldehyde. Cells were stained with crystal violet staining solution, and cells on the upper side of the insert were removed with a cotton swab. Three randomly selected fields (10× objectives) on the lower side of the insert were photographed, and the migrated cells were counted. The migration was expressed as either the average number of migrated cells in a field or as percentage of migrated cells in positive control. Percentage was calculated with the formula P=100×(M−Mnc)/Mpc, where P is the percentage of migrated cells, M is the number of migrated cells, Mnc is the number of migrated cells in negative controls, and Mpc is the number of migrated cells in positive controls.

[4] = biological target: T1, Drosophila fascin (Drosophila melanogaster, UniProt Q24524); assay: Migration of fascin siRNA-treated 4T1 cells rescued with Drosophila fascin; assay type: cell-based; conditions: Drosophila fascin in fascin siRNA-treated 4T1 cells
T1 construct: expressed in transfected cells; host or cells: 4T1 mouse mammary tumor cells treated with fascin siRNAs
T1 sequence (Q24524 1-512): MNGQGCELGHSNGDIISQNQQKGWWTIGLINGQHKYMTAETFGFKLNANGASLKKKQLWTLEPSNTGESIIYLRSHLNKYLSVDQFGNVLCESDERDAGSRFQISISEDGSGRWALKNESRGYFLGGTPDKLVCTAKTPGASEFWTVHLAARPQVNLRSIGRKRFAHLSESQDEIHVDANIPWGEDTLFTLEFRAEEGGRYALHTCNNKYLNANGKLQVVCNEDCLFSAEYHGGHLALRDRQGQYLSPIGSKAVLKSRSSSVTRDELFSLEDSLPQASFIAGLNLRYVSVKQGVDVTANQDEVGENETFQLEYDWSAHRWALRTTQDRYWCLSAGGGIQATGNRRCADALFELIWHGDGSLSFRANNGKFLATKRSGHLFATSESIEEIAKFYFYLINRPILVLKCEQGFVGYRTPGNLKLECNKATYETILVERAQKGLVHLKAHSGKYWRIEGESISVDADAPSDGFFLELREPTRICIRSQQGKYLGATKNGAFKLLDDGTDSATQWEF
Method: as §1

[5] = tested on: 4T1 cells; conditions: serum, Shan et al. 2005; cited from earlier work
[6] = biological target: fascin (Homo sapiens, UniProt Q16658); assay: GST-fascin and biotin-macroketone interaction; assay type: binding; parameters: made in house; host or cells: Escherichia coli BL21; conditions: excess unlabeled compound
Method: Whole cell lysates from 4T1 mouse breast tumor cells were made. After preclearing the cell lysate with immobilized neutravidin biotin binding protein (Pierce, IL, USA) to remove biotin and avidin-binding proteins, the cell lysates were loaded to a column packed with the biotin-labeled macroketone (conjugated to neutravidin beads). A control column packed with free biotin and neutravidin beads was run side-by-side. After washing the column with 10 bed volumes of lysis buffer with 300 mM NaCl, the bound proteins were eluted with 0.1 M Glycine-HCl at pH 2.8 according to the manufacturer's instruction. […] Protein Expression and Purification. Recombinant GST-fascin fusion protein was produced in BL21 Escherichia coli. A 1-liter culture was grown to an A600 reading of 1.0 and then induced by addition of 0.3 mM isopropyl 1-thio-D-galactopyranoside (IPTG) for 12 hours at 25° C. Cells were flash frozen and then lysed by sonication in Tris-buffered saline. The supernatant was then incubated with glutathione-Sepharose for 2 h at 4° C. After extensive washing, GST-fascin was eluted and concentrated with a Centricon Plus-20 (Millipore). To remove the GST tag from the fusion protein, beads were incubated with thrombin overnight at 4° C. The supernatant was collected and concentrated. GST-fascin and Biotin-macroketone Interaction. […] Proteins associated with biotin-macroketone were precipitated with Untralink-immobilized NeutrAvidin agarose (Pierce). After extensive washing, bound proteins were eluted with SDS sample buffer and resolved by 10% SDS-PAGE. F-Actin Bundling Assay. Actin bundling activity was measured by low speed centrifugation assay and fluorescence microscopy. In low-speed centrifugation assay, monomeric rabbit G-actin was induced to polymerize at room temperature in F-actin buffer (20 mM Tris-HCl at pH 8, 1 mM ATP, 1 mM DTT, 2 mM MgCl2 and 100 mM KCl). Recombinant fascin proteins or control buffer were subsequently incubated with F-actin for 60 min at room temperature and centrifuged for 30 min at 10,000 g in an Eppendorf 5415D table-top centrifuge.

COC1C=CCCCCC(=O)CCC(C)=CC(C)C1O (stereo not shown) [macroketone, Migrastatin ketone]
inhibition of serum-induced migration (wound-healing) [1]: inhibited the migration | inhibition of migration [2]: inhibited the migration | inhibition of rescued migration [3]: not inhibited | sensitivity of rescued migration [4]: no sensitivity | formation of lamellipodia at the leading edge [5]: inhibited the formation of lamellipodia | competition of binding of biotin-conjugated macroketone to fascin [6]: efficiently competed | competition of binding of biotin-conjugated macroketone to fascin ([6]; listed as unlabeled macroketone): decreased the binding
